Test results: patent publication US7855290B2, “Pyridine derivatives and pyrimidine derivatives (3)” (Eisai R&D Management Co., Ltd., priority 2005, dated 2010)

Target: T1, His6-HGFR (HGFR cytoplasmic domain) (Homo sapiens, UniProt P08581)
T1 construct: made in house; host or cells: Sf9 insect cells (Spodoptera frugiperda), baculovirus, pFastBac-HT vector
Test: Inhibitory activity against HGFR tyrosine kinase activity (HTRF)
Format: biochemical
Settings: biotin-poly(GT), ATP, 30° C. 10 min
From the text: The cytoplasmic domain of HGFR (Genbank Accession No. J02958) is a 1.3 kb DNA fragment beginning with Lys974 and including a stop codon, and described by Park et al. (Proc. Natl. Acad. Sci. U.S.A. 84(18), 6379-6383, 1987). The DNA fragment was isolated from the human placental cDNA library (purchased from Clontech) by PCR (TaKaRa Ex Taq™ Kit, purchased from TaKaRa) using two kinds of primers (SEQ ID NO: 1,5′-[…]-3′ and SEQ ID NO: 2,5′-[…]-3′, purchased from Invitrogen). The DNA fragment was cloned into a baculovirus transplace vector (pFastBac™-HT (purchased from GIBCO BRL)) to produce a recombinant construct. […] EGFR was purchased from Sigma (Production No. E-2645).
To the suspension of Sf9 cells (3×10^8 cells) in SF-900II medium (purchased from Invitrogen) containing 2% FBS was added a solution of HGFR transfected baculovirus above (4 ml), followed by a shaking culture at 27° C. for 48 hrs. The cells infected with the HGFR transfected baculovirus were centrifuged at 1,000 rpm, 4° C. for 5 min to remove the supernatant. The precipitated infected cells were suspended in 80 ml of ice-cold PBS, and centrifuged at 1,000 rpm, 4° C. for 5 min to remove the supernatant. The precipitated infected cells were suspended in 40 ml of ice-cold Lysis Buffer (50 mM Tris-HCl (pH 8.5), 5 mM 2-mercaptoethanol, 100 mM KCl, 1 mM PMSF and 1% (v/v) NP-40). The suspension was centrifuged at 12,000 rpm, 4° C. for 30 min to provide a supernatant.
The supernatant was loaded onto an Ni-NTA agarose column (3 ml, purchased from Qiagen) equilibrated with 30 ml of Buffer A (20 mM Tris-HCl (pH 8.5), 5 mM 2-mercaptoethanol, 500 mM KCl, 20 mM imidazole and 10% (v/v) glycerol). The column was washed with 30 ml of Buffer A, 6 ml of Buffer B (20 mM Tris-HCl (pH 8.5), 5 mM 2-mercaptoethanol, 1 M KCl, and 10% (v/v) glycerol) and 6 ml of Buffer A in this order. Then, the column was eluted with 6 ml of Buffer C (20 mM Tris-HCl (pH 8.5), 5 mM 2-mercaptoethanol, 100 mM KCl, 100 mM imidazole, and 10% (v/v) glycerol) to provide a fraction. The fraction was entrapped in a dialysis membrane (purchased from Spectrum Laboratories), dialyzed at 4° C. overnight with 1 L of dialysis buffer (20 mM Tris-HCl (pH 7.5), 10% (v/v) glycerol, 1 mM dithiothreitol, 0.1 mM Na3VO4 and 0.1 mM EGTA), and stored at −80° C. until used. […] The VEGFR2 cytoplasmic domain, the FGFR1 cytoplasmic domain, and the PDGFRβ cytoplasmic domain were fused with six histidine at the N terminus by the similar method to produce respective recombinant proteins (His6-VEGFR2, His6-FGFR1, and His6-PDGFRβ).
To each well of a 96-well round plate (purchased from NUNC, Production No. 163320) were added 10 μl of a solution for kinase reaction (200 mM Hepes (pH 7.4), 80 mM MgCl2, 16 mM MnCl2 and 2 mM Na3VO4), 250 ng of biotinylated poly(Glu4: Tyr1) (biotin-poly(GT), purchased from Japan Schering) (6 μl, 15-fold diluted with distilled water), 30 ng of His6-HGFR (10 μl, 60-fold diluted with 0.4% BSA) and a test substance dissolved in dimethylsulfoxide (4 μl, 100-fold diluted with 0.1% BSA) to mess up to 30 μl. To the well was added 10 μl of 4 μM ATP (purchased from Sigma) diluted with distilled water to incubate at 30° C. for 10 min, followed by adding 10 μl of 500 mM EDTA (pH 8.0) (purchased from Wako Pure Chemicals) to provide a kinase reaction solution.
The tyrosine-phosphorylated biotin-poly(GT) was detected using the Homogenous Time-Resolved Fluorescence (HTRF) method (Analytical Biochemistry, 269, 94-104, 1999).

T1 sequence (P08581 956-1390 limits assumed): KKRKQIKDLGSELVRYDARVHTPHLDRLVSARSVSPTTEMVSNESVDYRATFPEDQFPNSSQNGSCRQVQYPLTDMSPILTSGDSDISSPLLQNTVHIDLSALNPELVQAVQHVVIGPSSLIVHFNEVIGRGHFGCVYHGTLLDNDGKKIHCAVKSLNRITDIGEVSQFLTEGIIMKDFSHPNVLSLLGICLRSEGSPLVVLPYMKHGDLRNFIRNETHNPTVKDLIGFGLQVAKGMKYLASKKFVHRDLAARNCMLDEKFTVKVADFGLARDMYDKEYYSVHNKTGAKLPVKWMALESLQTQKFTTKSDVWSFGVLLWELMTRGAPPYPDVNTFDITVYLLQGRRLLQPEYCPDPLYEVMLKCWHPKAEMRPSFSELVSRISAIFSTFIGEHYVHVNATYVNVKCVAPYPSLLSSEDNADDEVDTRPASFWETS

Row | SMILES | IC50
1 | CN1CCC(N2CCN(C(=O)Nc3cc(Oc4ccc(NC(=O)C5(C(=O)Nc6ccc(F)cc6)CC5)cc4)ccn3)CC2)CC1 [Example 31, N-(4-Fluorophenyl)-N′-(4-{[2-({[4-(1-methylpiperidin-4-yl)piperazin-1-yl]carbonyl}amino)pyridin-4-yl]oxy}phenyl)cyclopropane-1,1-dicarboxamide] | 62 nM
2 | O=C(Nc1cc(Oc2ccc(NC(=O)C3(C(=O)Nc4ccc(F)cc4)CC3)c(F)c2)ccn1)N1CCC(N2CCNCC2)CC1 [Example 71, N-(4-Fluorophenyl)-N′-{2-fluoro-4-[(2-{[(4-piperazin-1-ylpiperidin-1-yl)carbonyl]amino}pyridin-4-yl)oxy]phenyl}cyclopropane-1,1-dicarboxamide] | 121 nM
3 | CN1CCN(C(=O)Nc2cc(Oc3ccc(NC(=O)C4(C(=O)Nc5ccc(F)cc5)CC4)c(F)c3)ccn2)CC1 [Example 64, N-{2-Fluoro-4-[(2-{[(1-methylpiperazin-4-yl)carbonyl]amino}pyridin-4-yl)oxy]phenyl}-N′-(4-fluorophenyl)cyclopropane-1,1-dicarboxamide] | 58 nM
4 | CN(C)C1CCN(C(=O)Nc2cc(Oc3cc(F)c(NC(=O)C4(C(=O)Nc5ccc(F)cc5)CC4)cc3F)ccn2)CC1 [Example 103, N-(4-{[2-({[4-(Dimethylamino)piperidin-1-yl]carbonyl}amino)pyridin-4-yl]oxy}-2,5-difluorophenyl)-N′-(4-fluorophenyl)cyclopropane-1,1-dicarboxamide] | 57 nM
5 | CN(C)C1CCN(C(=O)Nc2cc(Oc3cc(F)c(NC(=O)C4(C(=O)Nc5ccc(F)cc5)CC4)cc3F)ncn2)CC1 [Example 102, N-(4-{[4-({[4-(Dimethylamino)piperidin-1-yl]carbonyl}amino)pyrimidin-6-yl]oxy}-2,5-difluorophenyl)-N′-(4-fluorophenyl)cyclopropane-1,1-dicarboxamide] | 72 nM
6 | CN(C)C1CN(C2CCN(C(=O)Nc3cc(Oc4ccc(NC(=O)C5(C(=O)Nc6ccccc6)CC5)c(F)c4)ccn3)CC2)C1 [Example 55] | 120 nM
7 | CN1CCN(C2CCN(C(=O)Nc3cc(Oc4ccc(NC(=O)C5(C(=O)Nc6ccc(F)cc6)CC5)cc4F)ccn3)CC2)CC1 [Example 20, N-(3-Fluoro-4-{[2-({[-4-(4-methylpiperazin-1-yl)piperidin-1-yl]-carbonyl}amino)pyridin-4-yl]oxy}phenyl)-N′-(4-fluorophenyl)cyclopropane-1,1-dicarboxamide] | 59 nM
8 | CCN(CC)CCCNC(=O)Nc1cc(Oc2ccc(NC(=O)C3(C(=O)Nc4ccc(F)cc4)CC3)cc2C)ccn1 [Example 45, N-[4-({2-[({[3-(Diethylamino)propyl]amino}carbonyl)amino]pyridin-4-yl}oxy)-3-methylphenyl]-N′-(4-fluorophenyl)cyclopropane-1,1-dicarboxamide] | 240 nM
9 | O=C(Nc1cc(Oc2ccc(NC(=O)C3(C(=O)Nc4ccc(F)cc4)CC3)cc2)ccn1)N1CCC(CN2CCCC2)CC1 [Example 29, N-(4-Fluorophenyl)-N′-(4-{[2-({[4-(pyrrolidin-1-ylmethyl)piperidin-1-yl]-carbonyl}amino)pyridin-4-yl]oxy}phenyl)cyclopropane-1,1-dicarboxamide] | 63 nM
10 | O=C(Nc1cc(Oc2ccc(NC(=O)C3(C(=O)Nc4ccc(F)cc4)CC3)cc2F)ccn1)N1CCC(N2CCCC2)CC1 [Example 10, N-(4-Fluorophenyl)-N′-{3-fluoro-4-[(2-{[(4-pyrrolidin-1-ylpiperidin-1-yl)carbonyl]amino}pyridin-4-yl)oxy]phenyl}cyclopropane-1,1-dicarboxamide] | 54 nM
11 | CCN1CCC(N(C)C(=O)Nc2cc(Oc3ccc(NC(=O)C4(C(=O)Nc5ccccc5)CC4)c(F)c3)ccn2)CC1 [Example 60, N-(4-{[2-({[(1-Ethylpiperidin-4-yl)(methyl)amino]carbonyl}amino)pyridin-4-yl]oxy}-2-fluorophenyl)-N′-phenylcyclopropane-1′-dicarboxamide] | 82 nM
12 | CN(C)C1CCN(C(=O)Nc2cc(Oc3ccc(NC(=O)C4(C(=O)Nc5ccc(F)cc5)CC4)c(F)c3)ccn2)CC1 [Example 18, N-(4-{[2-({[4-(Dimethylamino)piperidin-1-yl]carbonyl}amino)pyridin-4-yl]oxy}-2-fluorophenyl)-N′-(4-fluorophenyl)cyclopropane-1,1-dicarboxamide] | 53 nM

Further compounds by falling IC50, results first:

Row | IC50 | SMILES
13 | 52 nM | CN(C)C1CN(C2CCN(C(=O)Nc3cc(Oc4ccc(NC(=O)C5(C(=O)Nc6ccc(F)cc6)CC5)cc4)ccn3)CC2)C1 [Example 38, N-[4-({2-[({4-[3-(Dimethylamino)azetidin-1-yl]piperidin-1-yl}carbonyl)amino]pyridin-4-yl}oxy)phenyl]-N′-(4-fluorophenyl)cyclopropane-1,1-dicarboxamide]
14 | 50 nM | CN1CC(N2CCN(C(=O)Nc3cc(Oc4ccc(NC(=O)C5(C(=O)Nc6ccc(F)cc6)CC5)cc4F)ccn3)CC2)C1 [Example 22, N-(3-Fluoro-4-{[2-({[4-(1-methylazetidin-3-yl)piperazin-1-yl]carbonyl}amino)pyridin-4-yl]oxy}phenyl)-N′-(4-fluorophenyl)cyclopropane-1,1-dicarboxamide]
15 | 45 nM | O=C(Nc1cc(Oc2ccc(NC(=O)C3(C(=O)Nc4ccc(F)cc4)CC3)c(F)c2)ccn1)N1CCC(N2CCCC2)CC1 [Example 4, N-(4-Fluorophenyl)-N′-{2-fluoro-4-[(2-{[(4-pyrrolidin-1-ylpiperidin-1-yl)carbonyl]amino}pyridin-4-yl)oxy]phenyl}cyclopropane-1,1-dicarboxamide]
16 | 44 nM | CN(C)[C@H]1CCN(C(=O)Nc2cc(Oc3ccc(NC(=O)C4(C(=O)Nc5ccc(F)cc5)CC4)cc3)ccn2)C1 [Example 41, N-(4-{[2-({[(3S)-3-(Dimethylamino)pyrrolidin-1-yl]carbonyl}amino)pyridin-4-yl]oxy}phenyl)-N′-(4-fluorophenyl)cyclopropane-1,1-dicarboxamide]
17 | 26 nM | CN1CCC(N(C)C(=O)Nc2cc(Oc3ccc(NC(=O)C4(C(=O)Nc5ccc(F)cc5)CC4)cc3F)ncn2)CC1 [Example 33, N-(3-Fluoro-4-{[6-({[methyl(1-methylpiperidin-4-yl)amino]carbonyl}amino)pyrimidin-4-yl]oxy}phenyl)-N′-(4-fluorophenyl)cyclopropane-1,1-dicarboxamide]
18 | 20 nM | O=C(Nc1cc(Oc2ccc(NC(=O)C3(C(=O)Nc4ccc(F)cc4)CC3)c(F)c2)ccn1)N1CCCC1 [Example 62, N-(4-Fluorophenyl)-N′-[2-fluoro-4-({2-[(pyrrolidin-1-ylcarbonyl)amino]pyridin-4-yl}oxy)phenyl]cyclopropane-1,1-dicarboxamide]
19 | 18 nM | O=C(Nc1cc(Oc2ccc(NC(=O)C3(C(=O)Nc4ccc(F)cc4)CC3)cc2F)ccn1)N1CC(O)C1 [Example 80, N-{3-Fluoro-4-[(2-{[(3-hydroxyazetidin-1-yl)carbonyl]amino}pyridin-4-yl)oxy]phenyl}-N′-(4-fluorophenyl)cyclopropane-1,1-dicarboxamide]
20 | 15 nM | O=C(Nc1cc(Oc2cc(F)c(NC(=O)C3(C(=O)Nc4ccc(F)cc4)CC3)cc2F)ccn1)N1CCC(O)CC1 [Example 105]
